Assay results taken from patent US10011635B2, “Cyclic peptide conjugates and methods of use” (priority 2013, dated 2018).
Numbered stars: 1 amine (or outer) side, 2 acyl side, 3 side chain; on linkers, the order of the positions; unused ones are H or OH. Bridge positions count the residues as written; N and C are the ends. Square brackets hold non-standard residues; d marks the D form. Peptide text beside a SMILES is read from it. * marks the point of attachment. dProlinol(O-CH2CO) = O=C(COC[C@H]1CCCN1[*:1])[*:2]; N(2-Aminoethyl)Gly = O=C(CN(CCN[*:3])[*:1])[*:2]; Nle = CCCC[C@H](N)C(=O)O; Ms = CS(=O)(=O)*

Experiments:
H929 cells = test: In vitro cytotoxicity, PI staining, flow cytometry and microscopy (H929); type: cell-based, human; conditions: 1 hour at 37° C., flow cytometry, compared to medium alone
Description: FSC/SSC scatter densities distinguished live cells (right population) and dead cells (left population). This was confirmed by PI staining.
(§1) The cells were incubated with the conjugates and negative and positive controls for 1 hour at 37° C. followed by propidium iodide (PI) staining and flow cytometry analysis using FSC/SSC scatter densities and fluorescence to distinguish live and dead cells.

5TGM1 cells = test: 5TGM1 murine myeloma model in vivo (survival, serum IgG2b); conditions: 5TGM1 i.v. in C57BL6/KaLwRij mice; i.v. once weekly for 3 weeks; 10 mg/kg Fc-Sec-MTI-101, 10 mg/kg Fc-stop or MTI-101 0.3285 mg/kg; n=5
Description: One million 5TGM1 cells were injected intravenously (i.v.) in C57BL6/KaLwRij mice. Mice injected i.v. were treated once weekly for 3 weeks with 10 mg/kg Fc-Sec-MTI-101, 10 mg/kg Fc-stop, or an equal payload of MTI-101 (0.3285 mg/kg). […] Medium survival was 35 days for control and MTI-101 IV equal payload, 26 days for […] and 62 days for Fc-Sec-MTI-101 (n=5 animals per group), as shown in FIG. 18B. IgG2b levels were measured by ELISA 28 days following tumor inoculation.
This is an excellent immune competent MM model in which drug response is monitored in the confines of the bone marrow microenvironment. […] 5TGM1 cells (1×10^6 in 100 μL of PBS) were injected intravenously (i.v.) into the tail vein of 6-week old C57 BL/KaLwRij mice (Harlen, Netherlands). Tumor was allowed to engraft for 10 days prior to the initiation of drug treatment.
To quantify tumor burden, blood was collected by submandibular bleeding and mice were monitored weekly by measuring 5TGM1 secreted IgG2b (paraprotein) in the serum by ELISA (FIG. 18B). Hind limb paralysis and hunching were considered as additional surrogate markers for morbidity.

[1] = Maximum tolerated dose of MTI-101; set-up: species or system C57 BL/KaLwRij mice; conditions: mouse, in vivo, ip; i.p. 3× weekly for three weeks
multiple myeloma (MM) = conditions: summary statement, no test described; cited from earlier work
U266 cells = test: In vitro cytotoxicity, PI staining and flow cytometry (U266); type: cell-based, human; conditions: 1 hour at 37° C., PI staining, flow cytometry; compared to medium alone
Description: as §1

Compound: CCCC[C@@H]1NC(=O)CN(S(C)(=O)=O)CCNC(=O)[C@H](CCCCN)NC(=O)[C@H](CC(C)C)NC(=O)[C@H](CCCCN)NC(=O)[C@H](CC(C)C)NC(=O)[C@H](CCCCN)NC(=O)COC[C@H]2CCCN2C(=O)[C@H](Cc2c[nH]c3ccccc23)NC(=O)[C@H](C)NC(=O)[C@H](C(C)C)NC(=O)[C@H](C(C)C)NC1=O [MTI-101] (Ms-[N(2-Aminoethyl)Gly][Nle]VVAW[dProlinol(O-CH2CO)]KLKLK; lactam 1-C)
- cytotoxicity toward H929 cells (H929 cells): clearly killed
- Medium survival (5TGM1 cells): 35 days
- MTD [1]: 10 mg/kg
- IC50 potency (multiple myeloma (MM)): near nM
- cytotoxicity toward U266 cells (U266 cells): clearly killed
